For orientation: IC50 means the concentration at which inhibition is half-maximal. As usually defined, the remaining activity is the share of the control activity or signal that is left under treatment.

Our source for the IC50 and remaining activity values is patent US20240018153A1, “BENZENESULFONAMIDE DERIVATIVES AND USES THEREOF” (2692372 ONTARIO, INC., priority 2020, published 2024).

What all share (type): biochemical
Assay [1] concerns the target FGFR4 (Homo sapiens (Human), UniProt P22455). Briefly: HTRF KinEASE-TK kinase assay, FGFR4. As to conditions: for IC50: dose response; for remaining activity at 1 µM: read-out: % FGFR4 Remaining activity vs DMSO (1 μM, 3 h); for remaining activity at 10 µM: read-out: % FGFR4 Remaining activity vs DMSO (10 μM, 3 h). Here is the method: (§1) Kinase activity was monitored using a HTRF® KinEASE-TK kit from Cisbio (62TK0PEC). […] FGFR-4 was purchased from Promega. 0.333 ng/ul FGFR4 (5.12 nM) was preincubated in the absence or presence of inhibitor at room temperature for 3 hours. Reaction with substrate was then initiated by adding biotinylated substrate and ATP. […] The reaction was terminated by adding 31.25 nM SA-XL665 and 100 fold diluted europium labelled antibody (Eu-Ab), diluted in 1× detection buffer that contained EDTA. After 60 min of incubation, the fluorescence emission was measured at 620 nm and 665 nm. The ratio of Em 665 nm to Em 620 nm was proportional to the amount of substrate phosphorylated by the kinase.
(In general: Time-resolved FRET reads energy transfer from a long-lived donor to a nearby acceptor.)

In assay [2] the target is BTK (Homo sapiens (Human), UniProt Q06187). Put plainly: HTRF KinEASE-TK kinase assay, BTK. As to conditions: 3 h preincubation; for remaining activity at 1 µM: 1 μM compound, read-out: % BTK Remaining activity vs DMSO (1 μM, 3 h); for remaining activity at 10 µM: 10 μM compound, read-out: % BTK Remaining activity vs DMSO (10 μM, 3 h). Here is the method: Kinase activity was monitored using a HTRF® KinEASE-TK kit from Cisbio (62TK0PEC). For BTK, the 1× kinase buffer was supplemented with 10 mM MnCl2, 5 mM MgCl2, 1 uM ATPγS, 1 mM TCEP and 100 fold diluted Supplementary Enzyme Buffer. BTK was purchased from Promega. […] Reaction with substrate was then initiated by adding biotinylated substrate and ATP and the reaction was allowed to proceed for 45 min. […] After 60 min of incubation, the fluorescence emission was measured at 620 nm and 665 nm. The ratio of Em 665 nm to Em 620 nm was proportional to the amount of substrate phosphorylated by the kinase.

The target in assay [3] is EGFR (Homo sapiens (Human), UniProt P00533). Put plainly: HTRF KinEASE-TK kinase assay, EGFR. As to conditions: 3 h preincubation; for remaining activity at 1 µM: 1 μM compound, read-out: % EGFR Remaining activity vs DMSO (1 μM, 3 h); for remaining activity at 10 µM: 10 μM compound, read-out: % EGFR Remaining activity vs DMSO (10 μM, 3 h); for IC50: dose response, read-out: EGFR Inhibition IC50. Here is the method: Kinase activity was monitored using a HTRF® KinEASE-TK kit from Cisbio (62TK0PEC). The buffer used was 1× kinase buffer supplemented with 2 mM MnCl2, 5 mM MgCl2, 1 mM TCEP and 100× diluted Supplementary Enzyme Buffer. EGFR was purchased from Promega. […] Reaction with substrate was then initiated by adding biotinylated substrate and ATP. […] After 60 min of incubation, the fluorescence emission was measured at 620 nm and 665 nm. The ratio of Em 665 nm to Em 620 nm was proportional to the amount of substrate phosphorylated by the kinase.
For initial screening, enzymes were pre incubated with compounds at 2 different concentrations (1 and 10 uM final) and 0.5% DMSO.

In assay [4] the target is BMX (Homo sapiens (Human), UniProt P51813). Briefly: HTRF KinEASE-TK kinase assay, BMX. As to conditions: for remaining activity at 1 µM: 1 uM compound; for remaining activity at 1 µM / remaining activity at 10 µM: 3 h preincubation; for remaining activity at 10 µM: 10 uM compound. The procedure:
as §1, with “BMX” for “FGFR-4”, “BMX (3.03” for “FGFR4 (5.12”, “The reaction” for “Reaction”, “Reaction” for “The reaction”

Assay [5] addresses JAK3 (Homo sapiens (Human), UniProt P52333). Briefly: HTRF KinEASE-TK kinase assay, JAK3. As to conditions: for remaining activity at 1 µM: read-out: % JAK3 Remaining activity vs DMSO (1 μM, 3 h); for remaining activity at 10 µM: read-out: % JAK3 Remaining activity vs DMSO (10 μM, 3 h). The procedure:
as §1, with “JAK-3” for “FGFR-4”, “0.0133” for “0.333”, “JAK3 (0.21” for “FGFR4 (5.12”

Assay [6] has as its target RIPK2 (Homo sapiens (Human), UniProt O43353). Briefly: In vitro RIPK2 inhibition. The conditions noted are these: for remaining activity at 1 µM: read-out: % RIPK2 Remaining activity vs DMSO (1 μM, 3 h); for remaining activity at 10 µM: read-out: % RIPK2 Remaining activity vs DMSO (10 μM, 3 h).

JAK3, sequence (P52333 781-1124): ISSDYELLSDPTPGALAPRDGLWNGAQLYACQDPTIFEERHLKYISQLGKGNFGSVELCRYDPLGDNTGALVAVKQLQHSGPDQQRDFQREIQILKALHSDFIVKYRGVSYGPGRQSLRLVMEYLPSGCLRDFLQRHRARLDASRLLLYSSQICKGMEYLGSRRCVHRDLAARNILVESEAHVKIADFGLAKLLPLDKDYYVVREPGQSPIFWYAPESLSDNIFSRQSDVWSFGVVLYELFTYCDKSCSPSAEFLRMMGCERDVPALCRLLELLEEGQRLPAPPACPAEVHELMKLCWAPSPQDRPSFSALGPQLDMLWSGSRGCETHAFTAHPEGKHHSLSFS
EGFR, sequence (P00533 25-1210): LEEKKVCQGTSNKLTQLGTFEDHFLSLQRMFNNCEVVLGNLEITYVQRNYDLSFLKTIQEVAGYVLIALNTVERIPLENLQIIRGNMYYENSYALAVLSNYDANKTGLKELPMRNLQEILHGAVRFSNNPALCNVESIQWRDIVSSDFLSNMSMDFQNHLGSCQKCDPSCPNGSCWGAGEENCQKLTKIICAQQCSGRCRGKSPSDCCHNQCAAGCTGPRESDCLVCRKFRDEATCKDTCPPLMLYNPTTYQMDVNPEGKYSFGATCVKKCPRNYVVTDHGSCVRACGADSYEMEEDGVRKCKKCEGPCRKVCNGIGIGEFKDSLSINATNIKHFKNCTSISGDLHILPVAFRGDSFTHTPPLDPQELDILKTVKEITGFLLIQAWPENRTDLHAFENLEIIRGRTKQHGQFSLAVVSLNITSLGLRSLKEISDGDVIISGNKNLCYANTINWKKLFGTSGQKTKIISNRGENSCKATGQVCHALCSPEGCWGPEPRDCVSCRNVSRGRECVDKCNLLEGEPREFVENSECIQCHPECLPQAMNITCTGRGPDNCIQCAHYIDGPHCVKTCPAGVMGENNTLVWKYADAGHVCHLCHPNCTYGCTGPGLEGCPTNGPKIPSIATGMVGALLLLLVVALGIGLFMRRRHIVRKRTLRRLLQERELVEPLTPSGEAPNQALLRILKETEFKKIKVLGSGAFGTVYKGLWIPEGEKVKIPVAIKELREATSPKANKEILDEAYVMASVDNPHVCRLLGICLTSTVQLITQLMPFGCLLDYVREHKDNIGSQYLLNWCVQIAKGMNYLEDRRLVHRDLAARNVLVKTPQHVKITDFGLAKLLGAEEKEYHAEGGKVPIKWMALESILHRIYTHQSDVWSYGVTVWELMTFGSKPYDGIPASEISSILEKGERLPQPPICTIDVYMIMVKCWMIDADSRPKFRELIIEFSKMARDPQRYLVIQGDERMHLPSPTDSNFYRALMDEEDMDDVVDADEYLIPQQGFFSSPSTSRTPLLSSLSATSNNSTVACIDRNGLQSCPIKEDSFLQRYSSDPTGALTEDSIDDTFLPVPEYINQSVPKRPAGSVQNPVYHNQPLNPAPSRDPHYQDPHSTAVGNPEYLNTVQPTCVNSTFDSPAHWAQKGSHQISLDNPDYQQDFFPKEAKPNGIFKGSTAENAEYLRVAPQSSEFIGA
RIPK2, sequence (O43353 whole entry, species assumed): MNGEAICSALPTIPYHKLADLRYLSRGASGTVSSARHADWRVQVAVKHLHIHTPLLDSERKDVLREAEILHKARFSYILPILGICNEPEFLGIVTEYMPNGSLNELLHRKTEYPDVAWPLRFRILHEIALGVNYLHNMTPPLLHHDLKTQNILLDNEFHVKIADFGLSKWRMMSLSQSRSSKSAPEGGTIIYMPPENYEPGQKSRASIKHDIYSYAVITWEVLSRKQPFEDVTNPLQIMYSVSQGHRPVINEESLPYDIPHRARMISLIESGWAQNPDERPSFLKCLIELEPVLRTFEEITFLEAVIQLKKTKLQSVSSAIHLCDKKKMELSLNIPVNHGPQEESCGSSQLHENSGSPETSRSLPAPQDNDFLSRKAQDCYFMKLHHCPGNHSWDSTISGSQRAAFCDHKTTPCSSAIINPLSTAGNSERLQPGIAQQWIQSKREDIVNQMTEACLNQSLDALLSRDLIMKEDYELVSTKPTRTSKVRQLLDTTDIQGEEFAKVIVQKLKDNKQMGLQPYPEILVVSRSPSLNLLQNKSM
FGFR4, sequence (P22455 22-802): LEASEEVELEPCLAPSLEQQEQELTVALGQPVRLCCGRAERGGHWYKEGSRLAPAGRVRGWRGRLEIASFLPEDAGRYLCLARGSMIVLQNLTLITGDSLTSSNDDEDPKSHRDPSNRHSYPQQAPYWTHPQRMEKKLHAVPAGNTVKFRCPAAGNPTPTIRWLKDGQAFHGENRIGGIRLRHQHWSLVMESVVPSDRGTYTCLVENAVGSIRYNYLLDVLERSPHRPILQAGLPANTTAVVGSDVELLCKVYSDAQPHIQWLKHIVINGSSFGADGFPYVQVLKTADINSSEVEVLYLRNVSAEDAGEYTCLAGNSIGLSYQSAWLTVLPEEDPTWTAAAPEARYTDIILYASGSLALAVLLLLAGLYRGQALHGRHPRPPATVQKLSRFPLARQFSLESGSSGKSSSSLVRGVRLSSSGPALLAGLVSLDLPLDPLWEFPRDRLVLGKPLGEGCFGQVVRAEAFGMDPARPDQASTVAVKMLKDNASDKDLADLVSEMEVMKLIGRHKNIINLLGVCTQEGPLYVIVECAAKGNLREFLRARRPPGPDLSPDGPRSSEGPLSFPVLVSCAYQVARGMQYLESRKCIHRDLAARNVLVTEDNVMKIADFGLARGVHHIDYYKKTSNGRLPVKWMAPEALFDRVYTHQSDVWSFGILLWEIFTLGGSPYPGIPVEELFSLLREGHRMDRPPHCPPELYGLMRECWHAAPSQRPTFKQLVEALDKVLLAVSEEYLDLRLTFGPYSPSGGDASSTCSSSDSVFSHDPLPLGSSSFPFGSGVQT
BTK, sequence (Q06187 whole entry): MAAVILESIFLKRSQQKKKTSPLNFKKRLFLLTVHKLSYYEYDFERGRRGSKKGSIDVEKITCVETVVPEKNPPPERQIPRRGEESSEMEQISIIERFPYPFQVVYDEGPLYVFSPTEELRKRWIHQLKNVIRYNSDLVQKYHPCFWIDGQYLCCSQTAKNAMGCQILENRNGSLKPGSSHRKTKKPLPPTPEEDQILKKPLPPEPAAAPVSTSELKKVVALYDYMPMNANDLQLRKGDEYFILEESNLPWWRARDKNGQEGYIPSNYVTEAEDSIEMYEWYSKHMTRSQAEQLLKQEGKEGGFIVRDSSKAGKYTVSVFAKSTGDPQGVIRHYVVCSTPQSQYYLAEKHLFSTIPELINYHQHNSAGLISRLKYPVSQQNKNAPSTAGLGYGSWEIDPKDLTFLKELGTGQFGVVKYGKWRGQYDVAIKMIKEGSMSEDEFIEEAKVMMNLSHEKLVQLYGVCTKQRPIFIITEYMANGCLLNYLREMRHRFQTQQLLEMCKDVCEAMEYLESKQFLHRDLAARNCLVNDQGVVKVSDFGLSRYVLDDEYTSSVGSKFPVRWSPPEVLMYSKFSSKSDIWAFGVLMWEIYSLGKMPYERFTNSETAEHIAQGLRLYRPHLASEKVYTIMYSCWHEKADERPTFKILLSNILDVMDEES
BMX, sequence (P51813 whole entry): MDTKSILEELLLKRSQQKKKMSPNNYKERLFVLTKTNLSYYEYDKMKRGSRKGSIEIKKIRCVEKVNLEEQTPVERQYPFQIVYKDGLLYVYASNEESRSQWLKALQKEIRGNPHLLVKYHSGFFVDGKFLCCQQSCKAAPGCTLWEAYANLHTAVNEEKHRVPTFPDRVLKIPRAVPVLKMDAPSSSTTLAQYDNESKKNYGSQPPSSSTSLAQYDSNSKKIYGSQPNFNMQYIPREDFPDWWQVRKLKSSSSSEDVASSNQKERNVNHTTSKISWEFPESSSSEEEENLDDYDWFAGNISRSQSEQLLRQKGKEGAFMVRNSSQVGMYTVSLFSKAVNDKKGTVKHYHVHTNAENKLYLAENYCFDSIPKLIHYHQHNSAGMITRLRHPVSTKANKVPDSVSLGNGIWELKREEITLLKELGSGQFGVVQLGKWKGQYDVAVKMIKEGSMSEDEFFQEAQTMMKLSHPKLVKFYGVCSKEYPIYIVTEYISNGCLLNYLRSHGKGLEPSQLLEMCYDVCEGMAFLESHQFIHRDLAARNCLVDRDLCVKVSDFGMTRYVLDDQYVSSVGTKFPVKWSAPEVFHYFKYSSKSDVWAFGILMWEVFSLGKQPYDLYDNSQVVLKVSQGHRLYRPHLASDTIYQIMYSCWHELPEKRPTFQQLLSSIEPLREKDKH

Turning to `COCCOc1ccc(Nc2ncc(F)c(Nc3cccc(NC(=O)c4c(F)c(F)c(F)c(F)c4[S@+](C)[O-])c3)n2)cc1` (racemic) [Compound I-62, 2,3,4,5-tetrafluoro-N-(3-((5-fluoro-2-((4-(2-methoxyethoxy)phenyl)amino)pyrimidin-4-yl)amino)phenyl)-6-(methylsulfinyl)benzamide], the IC50 in assay [1] is less than 1 µM; in assay [2] (dose response, read-out: BTK Inhibition IC50), less than 1 µM.
`O=S(=O)(Nc1cc2c(Nc3ccc(F)c(Cl)c3)ncnc2cc1O[C@H]1CCOC1)c1c(F)c(F)c(F)c(F)c1C(F)(F)F` [Compound I-1, (S)—N-(4-((3-chloro-4-fluorophenyl)amino)-7-((tetrahydrofuran-3-yl)oxy)quinazolin-6-yl)-2,3,4,5-tetrafluoro-6-(trifluoromethyl)benzenesulfonamide]: the remaining activity at 1 µM was less than 50% in assay [3]; greater than 90% in assay [1]; 50 to 90% in assay [4]; 50 to 90% in assay [5]; 50 to 90% in assay [2]. The remaining activity at 10 µM in assay [3] is less than 50%; in assay [1] it was greater than 90%; in assay [4], 50 to 90%; in assay [5] it was less than 50%; in assay [2], less than 50%. Also, in assay [3], the IC50 was less than 1 µM.
With `CS(=O)(=O)c1c(F)c(F)c(F)c(F)c1C(=O)N1CC(n2nc(-c3ccc(Oc4ccccc4)cc3)c3c(N)ncnc32)C1` [Compound I-27, (3-(4-amino-3-(4-phenoxyphenyl)-1H-pyrazolo[3,4-d]pyrimidin-1-yl)azetidin-1-yl)(2,3,4,5-tetrafluoro-6-(methylsulfonyl)phenyl)methanone], the remaining activity at 1 µM in assay [3] was less than 50%; in assay [1], 50 to 90%; in assay [4] it was less than 50%; in assay [6], 50 to 90%; in assay [5] it was less than 50%; in assay [2], less than 50%. Further, the remaining activity at 10 µM in assay [3] is less than 50%; in assay [1] it was less than 50%; in assay [4], less than 50%; in assay [6] it was greater than 90%; in assay [5] it was less than 50%; in assay [2] it was less than 50%. For the same compound, the IC50 in assay [3] and in assay [5] (dose response) was less than 1 µM throughout.
In the case of `CN(CCn1nc(-c2ccc(Oc3ccccc3)cc2)c2c(N)ncnc21)C(=O)c1c(F)c(F)c(F)c(F)c1S(C)(=O)=O` [Compound I-28, N-(2-(4-amino-3-(4-phenoxyphenyl)-1H-pyrazolo[3,4-d]pyrimidin-1-yl)ethyl)-2,3,4,5-tetrafluoro-N-methyl-6-(methylsulfonyl)benzamide], the remaining activity at 1 µM is less than 50% in assay [3]; less than 50% in assay [1]; less than 50% in assay [4]; 50 to 90% in assay [6]; greater than 90% in assay [5]; less than 50% in assay [2]. For the same compound, the remaining activity at 10 µM in assay [3] is less than 50%; in assay [1], less than 50%; in assay [4], less than 50%; in assay [6], greater than 90%; in assay [5] it was less than 50%; in assay [2], less than 50%. The IC50 in assay [1] and in assay [4] (dose response) was less than 1 µM throughout.
With `CN(C)S(=O)(=O)c1c(F)c(F)c(F)c(F)c1C(=O)N1CCC[C@@H](n2nc(-c3ccc(Oc4ccccc4)cc3)c3c(N)ncnc32)C1` [Compound I-31, (R)-2-(3-(4-amino-3-(4-phenoxyphenyl)-1H-pyrazolo[3,4-d]pyrimidin-1-yl)piperidine-1-carbonyl)-3,4,5,6-tetrafluoro-N,N-dimethylbenzenesulfonamide], the remaining activity at 1 µM is greater than 90% in assay [3]; 50 to 90% in assay [1]; less than 50% in assay [4]; 50 to 90% in assay [6]; greater than 90% in assay [5]. Moreover, the remaining activity at 10 µM was greater than 90% in assay [3]; greater than 90% in assay [1]; less than 50% in assay [4]; greater than 90% in assay [6]; greater than 90% in assay [5].
Take `CN(CCn1nc(-c2ccc(Oc3ccccc3)cc2)c2c(N)ncnc21)c1c(F)c(F)c(F)c(F)c1S(C)(=O)=O` [Compound I-43, 1-(2-(methyl(2,3,4,5-tetrafluoro-6-(methylsulfonyl)phenyl)amino)ethyl)-3-(4-phenoxyphenyl)-1H-pyrazolo[3,4-d]pyrimidin-4-amine]: the remaining activity at 1 µM in assay [3] is greater than 90%; in assay [1] it was greater than 90%; in assay [4] it was 50 to 90%; in assay [5], greater than 90%; in assay [2], greater than 90%. In addition, the remaining activity at 10 µM in assay [3] is 50 to 90%; in assay [1] it was greater than 90%; in assay [4] it was greater than 90%; in assay [5], greater than 90%; in assay [2], greater than 90%.
Consider `CS(=O)(=O)c1c(F)c(F)c(F)c(F)c1CNCCn1nc(-c2ccc(Oc3ccccc3)cc2)c2c(N)ncnc21` [Compound I-44, 3-(4-phenoxyphenyl)-1-(2-((2,3,4,5-tetrafluoro-6-(methylsulfonyl)benzyl)amino)ethyl)-1H-pyrazolo[3,4-d]pyrimidin-4-amine], for which the remaining activity at 1 µM was greater than 90% in assay [3]; greater than 90% in assay [1]; less than 50% in assay [4]; greater than 90% in assay [5]; less than 50% in assay [2]. The remaining activity at 10 µM in assay [3], in assay [1], in assay [4], in assay [5] and in assay [2] was less than 50% each time.
With `COCCOc1ccc(Nc2ncc(F)c(Nc3cccc(NS(=O)(=O)c4c(F)c(F)c(F)c(F)c4CF)c3)n2)cc1` [Compound I-58, 2,3,4,5-tetrafluoro-N-(3-((5-fluoro-2-((4-(2-methoxyethoxy)phenyl)amino)pyrimidin-4-yl)amino)phenyl)-6-(fluoromethyl)benzenesulfonamide], the remaining activity at 1 µM in assay [3] is greater than 90%; in assay [1], less than 50%; in assay [4], less than 50%; in assay [5] it was greater than 90%; in assay [2] it was less than 50%. In addition, the remaining activity at 10 µM in assay [3] is greater than 90%; in assay [1], less than 50%; in assay [4], less than 50%; in assay [5], less than 50%; in assay [2] it was less than 50%. For the same compound, the IC50 in assay [1] is less than 1 µM.
